What was measured:
[1] = system: serum pro-inflammatory cytokines; conditions: mouse, in vivo
Text: Each of the 4 experimental retinoids was made up in DMSO as 0.1% and 0.3% solutions. The material was applied to the treatment area (2 cm^2 area) on a dot marked area on the inter-scapular back) once daily for 7 consecutive days or for 21 consecutive days. The test agent was gently rubbed into the test site after application. As a control, Tretinoin-0.1% was used. […] This is a commonly-prescribed anti-acne medicine. A set amount of the test article, DMSO, DMSO plus test drug, or Tretinoin cream (35 mg) was delivered using a Gilson MICROMAN fully adjustable positive placement pipette.
Serum was obtained from all mice at the end of the study and evaluated for levels of pro-inflammatory cytokines. For this, the same multiplex ELISA used with human samples was employed except that mouse-recognizing antibodies replaced antibodies used to detect the human counterparts.

human dermal fibroblasts [2] = assay: Retinoid-induced fibroblast survival under low-calcium conditions; type: cell-based; conditions: for protection of fibroblasts from lysis (percentage of initially present cells still viable): 0.1 to 5 μg/mL
Protocol: Human dermal fibroblasts are isolated from skin biopsies as described previously and grown in monolayer culture using DMEM supplemented with 10% fetal bovine serum as culture medium (see, e.g., Varani J, et al., J Clin Invest. 1994; 94; Varani J, et al., J. Invest. Dermatol. 94:717-723, 1990). Growth is at 37° C. in a humidified atmosphere containing 5% CO2 and 95% air. For experimental studies, cells are plated at 5×10^4 cells per well in wells of a 24-well culture dish in the same culture medium. One day later, cells are washed and the DMEM culture medium is replaced with Keratinocyte Basal Medium (KBM).
In this assay, low-passage human dermal fibroblasts are grown for three days in Keratinocyte Basal Medium (KBM) at a calcium concentration (0.1 mM) that is too low to support survival. […] How retinoids act to prevent fibroblast lysis is not fully understood, but part of the mechanism involves modulation of calcium transit across the cell membrane in the presence of the active retinoids (see, e.g., Varani J, et al., Am. J. Path. 136:1275-1281, 1990; Varani K, et al., Am J. Pathol. 147:718-729, 1995; Varani J, et al., Amer. J. Pathol. 148: 1307-1312, 1996).

human dermal fibroblasts [3] = assay: Generation of pro-inflammatory cytokines by fibroblasts (multiplex ELISA); type: cell-based; conditions: KBM 1.5 mM calcium, two days, culture fluids
Protocol: Fibroblasts were grown in KBM supplemented with 1.5 mM calcium (i.e., as in the fibroblast cytotoxicity assay) for two days. Culture fluids obtained at the end of the incubation period were assessed for several pro-inflammatory cytokines using a multiplex (ELISA-type) assay. Values shown are means and ranges based on duplicate samples in a single experiment. The experiment was repeated two times with similar results.
It is believed that the pro-inflammatory cytokines are “drivers” of the retinoid-induced skin irritation response. […] In this experiment, fibroblasts were cultured for two days in KBM supplemented with 1.5 mM calcium (i.e., as in the cytotoxicity assay). Culture fluids were collected after two days of incubation and subjected to a multiplex enzyme-linked immunosorbant assay (ELISA) for the following cytokines: TNF-α, IL-1β, IL-6, IL-8, MCP-1 and CXCL-1.

[4] = system: human epidermal keratinocytes; assay: Retinoid-induced keratinocyte desquamation (cell-cell detachment, trypsin/EDTA); type: cell-based; conditions: two days, KBM 1.5 mM calcium
Protocol: At the end of the incubation period, the cells were exposed to a combination of trypsin and EDTA and the percentage of cells that detached from one another were assessed over time.
Human epidermal keratinocytes are isolated from the same skin biopsies as fibroblasts and grown in monolayer culture using Keratinocyte Growth Medium (KGM) as described previously (see, e.g., Varani J, et al., J Clin Invest. 1994; Varani J, et al., J. Invest. Dermatol. 94:717-723, 1990; Varani J, et al., J. Invest. Dermatol. 1989; 93:449-454). Growth is at 37° C. in a humidified atmosphere containing 5% CO2 and 95% air. For some studies, experiments use the HaCat line of immortalized human epidermal keratinocytes in place of primary or low-passage cells. Growth for these cells is exactly as with low-passage keratinocytes.
When keratinocytes are grown in monolayer culture, proliferation is optimal under low-calcium (0.05-0.15 mM) conditions. When the calcium concentration is raised to 1.5 mM, the keratinocyte differentiation occurs and proliferation slows. Under such conditions, strong cell-cell connections are made. […] The end result is that cells separate more easily from one another (see, e.g., Varani J, et al., J. Invest. Dermatol. 1989; 93:449-454; Varani J, et al., J Invest. Dermatol. 97:917-921, 1991; Varani J, et al., Am. Path. 138:887-895, 1991). Retinoid efficacy in acne is dependent, in part at least, on reduced epidermal cohesion and ability of acne lesional skin to slough during washing.
As a way to quantify detachment, keratinocytes grown for 2 days in culture medium containing 1.5 mM calcium were washed and exposed to a combination of trypsin and EDTA. Cell detachment from neighboring cells was assessed at timed intervals.

| SMILES | IL-1β serum level [1] | TNF-α serum level [1] | protection of fibroblasts from lysis (percentage of initially present cells still viable) (human dermal fibroblasts [2]; KBM 0.1 mM calcium, three days) | protection of fibroblasts from lysis (percentage of initially present cells still viable) (human dermal fibroblasts [2]; KBM 0.1 mM calcium, three days, listed as Compound 1) | induction of pro-inflammatory cytokines (TNF-α, IL-1β, IL-6, IL-8, MCP-1, CXCL-1) (human dermal fibroblasts [3]) | induction of pro-inflammatory cytokines (TNF-α, IL-1β, IL-6, IL-8, MCP-1, CXCL-1) (human dermal fibroblasts [3]; listed as Compound 1) | ease of cell-cell separation (percentage of cells detached over time) ([4]; 1.0 μg/mL) | IL-6 serum level [1] [pg/mL] | KC/IL-8 serum level [1] [pg/mL] | MCP-1 serum level [1] | serum pro-inflammatory cytokine levels compared to control mice (in words) [1] | fall-off in cell numbers (human dermal fibroblasts [2]; 5 μg/mL, low-calcium survival assay) | concentration at which protection was optimal (human dermal fibroblasts [2]; KBM 0.1 mM calcium, three days) [µg/mL] | induction of pro-inflammatory cytokines (TNF-α, IL-1β, IL-6, IL-8, MCP-1, CXCL-1) (human dermal fibroblasts [3]; listed as Compound 2) | ease of cell-cell separation (percentage of cells detached over time) ([4]; 2.5 μg/mL) |
| --- | --- | --- | --- | --- | --- | --- | --- | --- | --- | --- | --- | --- | --- | --- | --- |
| CC1=C(/C=C/C(C)=C\C=C\C(C)=C\C(=O)N(C)CC(=O)C(C)(C)C)C(C)(C)CCC1 [Example 1, (2E,4E 6Z,8E)-N-(3,3-dimethyl-2-oxobutyl)-N,3,7-trimethyl-9-(2,6,6-trimethylcyclohex-1-en-1-yl)nona-2,4,6,8-tetraenamide] | low | low | capable of protecting fibroblasts from lysis under low-calcium conditions | as effective as ATRA | no evidence of cytokine induction at the highest concentration | not observed | more potent than ATRA |  |  |  |  |  |  |  |  |
| CC1=C(/C=C/C(C)=C/C=C/C(C)=C/C(=O)O)C(C)(C)CCC1 [ATRA, all-trans retinoic acid, reference compound] | low | low | capable of protecting fibroblasts from lysis under low-calcium conditions |  | induced a strong up-regulation of several cytokines |  | increased the ease of cell-cell separation as compared to control | 1.55 ± 0.66 | 23 ± 4 | 158 ^± 43 pg/mL | increase in levels of MCP-1, IL-6 and KC/IL-8 | incipient toxicity | 1.0 |  |  |
| CC1=C(/C=C/C(C)=C\C=C\C(C)=C\C(=O)N(C)CC(=O)c2ccccc2)C(C)(C)CCC1 [Example 2, (2E,4E 6Z,8E)-N,3,7-trimethyl—N-(2-oxo-2-phenylethyl)-9-(2,6,6-trimethylcyclohex-1-en-1-yl)nona-2,4,6,8-tetraenamide] | low | low | capable of protecting fibroblasts from lysis under low-calcium conditions |  | no evidence of cytokine induction at the highest concentration |  |  |  |  |  |  |  |  | not observed | comparable to ATRA at 1 μg/mL |

Source: patent US11148998B2, “Dimethyl-nonatetraenyl-trimethyl-cyclohexyl compounds and uses thereof” (The Regents of the University of Michigan, priority 2017, dated 2021)
